Experimental data from US7608642B2, “Wound and skin care compositions” (Kimberly-Clark Worldwide, Inc., priority 2002, dated 2009).
Values joined by “and” are separate entries in the source; they are usually repeats but may differ in a detail not shown here. Equal values may be shown once. “Also recorded” adds a separate entry of the source. Read-outs that look alike come from different tables or passages of the source.

Assays:
[1] = system: human skin fibroblast cell line (normal human dermal fibroblasts, neonatal); conditions: for Cell proliferating activity on human skin fibroblasts (in words): 1×10^−4 M to 1×10^−6 M vs control; for Mean optical density (OD) at 490 nm, cell proliferation / Median optical density (OD) at 490 nm, cell proliferation: 28 hours, serum-free DMEM, n=5
Description: Statistical analyses of data were performed using one-way ANOVA. P<0.05 is considered significant, while P<0.0001 is considered extremely significant and P<0.001 is considered as very very significant.

[2] = system: fibronectin production in the human skin fibroblast cell line; assay: Fibronectin production in human skin fibroblasts (Takara EIA kit MK115, absorbance 450 nm); assay type: cell-based; conditions: for Stimulation of fibronectin production (in words): 1×10^−4 M to 1×10^−6 M vs control; for Mean optical density (OD) at 450 nm, fibronectin production / Median optical density (OD) at 450 nm, fibronectin production: 48 hours, n=2
Description: The cells were first grown in a 96-well assay system using Dulbecco's Modified Eagle's Medium (DMEM) with 10% fetal bovine serum (FBS) both purchased from Sigma Chemical Co, St. Louis, Mo. Serum-free DMEM was used as a control. […] The fibronectin assay was performed using the recommended 100 μl of the supernatant from each well of the 96-well plate. Standard buffer and stop solutions were freshly prepared before running the assay. A pre-antibody-coated 96 well plate (provided with the kit) was used to transfer the test samples and control. The plate was mixed, sealed and incubated for 1 hour at 37° C. All the wells were washed after removing sample solutions, 3 times (300 μl) with washing buffer. 100 ul of antibody-POD conjugate solution was added into the wells. Plate was mixed, sealed and incubated for one hour at 37° C. Solutions were removed and the wells were washed 3 times with washing buffer. All the wells were completely emptied at the end of washing from any liquid. 100 μl of substrate solution (hydrogen peroxide and tetramethylbenzidine in a buffered solution) was added to each well and the plate was incubated at room temperature for 15 minutes. 100 μl of stop solution (freshly prepared 1N H2SO4) was added to each well in the same order as substrate. The plate was gently mixed and absorbance was read at 450 nm.

[3] = system: human skin keratinocyte cell line (normal human epidermal keratinocytes, neonatal); assay: Proliferation of human skin keratinocytes (Cell Titer 96, absorbance 490 nm); assay type: cell-based; conditions: for Cell proliferating activity on human keratinocytes (in words): 1×10^−4 M to 1×10^−6 M vs control; for Mean optical density (OD) at 490 nm, cell proliferation / Median optical density (OD) at 490 nm, cell proliferation: 48 hours, KBM, n=5
Description: In addition, 100 μl of vehicle KBM was added to 5 wells as control. […] The spectrophotometric absorbance of each well was read at 490 nm.

Swiss Albino mice = assay: Wound healing, full thickness skin wounds (3 mm biopsy punch) in mice; assay type: in vivo, mouse; conditions: topical 5 μl of 0.2% solution, 5 doses Day 0-2, vs control (WFI)
Description: Twenty, 12-week old Swiss Albino mice were anesthetized with a ketamine/acepromazine cocktail and subjected to four full thickness skin wounds on the dorsolateral surface. […] Jasmonic acid (100 mg) was dissolved in 2 ml ethanol. 200 μl of the resulting solution was then added to 4.8 ml of WFI. Four wounds were made on either side of the spinal column using a 3 mm biopsy punch. To make the wounds, the skin was first tented and the punch was driven through the tented skin to generate both wounds with a single stroke. The upper left quadrant wound site of the animal was assigned to receive the control solution (WFI). […] The wound sites were dosed 5 times (twice on Day 0, Day 1, and once on Day 2). All wounds were treated with 5 μl of test or control solutions. Wounds were allowed to absorb the solutions for 5 minutes before returning the animals to their cages for recovery. All the animals were housed singly. The in-life phase for the animals is 5 days. Each day the wounds on the mice were traced onto glass slides and measured using calipers accurate to the nearest 0.1 mm. Photographs of the wounds were also taken daily for the duration of the study to measure wound size. Means and the standard deviations of the wound diameters for each day were calculated for the healing profile. The effects of the test substances on wound healing were compared to the effects of the control (WFI).

[4] = system: collagen production in the human skin fibroblast cell line; assay: Collagen production in human skin fibroblasts (Takara EIA kit MK101, absorbance 450 nm); assay type: cell-based; conditions: for Stimulation of collagen production (in words): 1×10^−4 M to 1×10^−6 M vs control; for Mean optical density (OD) at 450 nm, collagen production / Median optical density (OD) at 450 nm, collagen production: 48 hours, n=2
Description: The cells were first grown in a 96-well assay system using Dulbecco's Modified Eagle's Medium (DMEM) with 10% fetal bovine serum (FBS) both purchased from Sigma Chemical Co, St. Louis, Mo. Serum-free DMEM was used as a control.
The assay was done by using the recommended 20 ul of the supernatant from each well of the 96-well plate. Standard buffer and stop solutions were freshly prepared before running the assay. 100 ul of antibody-POD conjugate solution (supplied with the kit) was added into the wells using pre antibody coated 96 well plate (supplied with the kit). 20 ul of standard and test solutions (from the other 96-well plate containing fibroblasts) were added to appropriate wells. Plate was mixed gently, sealed and incubated for three hrs. at 37° C.
After incubation each well was washed carefully four times with PBS buffer (400 ul). All the wells were completely emptied at the end of washing from any liquid.
100 ul of substrate solution (hydrogen peroxide and tetramethylbenzidine in a buffer solution, supplied with the kit) was added to each well and the plate was incubated for 15 minutes. At this point 100 ul of stop solution (freshly prepared 1N H2SO4) was added to each well in the same order as substrate. The plate was gently mixed and absorbance was read at 450 nm.

[5] = system: healthy female volunteers; assay: Dansyl chloride cell renewal study (stratum corneum renewal time); assay type: in vivo, human; conditions: topical twice daily for two weeks
Source text: The stratum corneum renewal time is the time taken for the whole thickness of the stratum corneum to be exfoliated and replaced by new cells from the dividing epidermis. This renewal time is a fundamental indicator of skin health. […] See Jansen L H, Hojyo-Tomoko M T, Kligman A M., Improved fluorescence staining technique for estimating turnover of the human stratum corneum, Br J Dermatol., 90, 9-12, 1974; Ridge B D, Batt M D, Palmer H E, Jarrett A, The dansyl chloride technique for stratum corneum renewal as an indicator of changes in epidermal mitotic activity following topical treatment., Br J Dermatol., 118, 167-74, 1988; Grove G L, Kligman A M, Age-associated changes in human epidermal cell renewal., J Geron., 38, 137-142, 1983. The time required for the dye to disappear is therefore an indication of the turnover time of the stratum corneum. Therefore, any differences in the time required for the dye to disappear from treated and non-treated sites can be considered to be an expression of that product's ability to enhance epidermal renewal.
A dansyl chloride cell renewal study was conducted in healthy female volunteers ranging from 43-64 years of age. The study consisted of a two-week treatment period during which time the products were applied topically twice daily, including on weekend days, to the test sites. The area of application was designated, approximately 5 cm×10 cm on the upper inner arm. The other arm served as a control with no product application. […] Eight females received jasmonic acid and seven females received gibberellic acid.
The time required for a marker dye to disappear was used as the measure of cell renewal rate.

CC(=O)Oc1ccccc1C(=O)O [acetylsalicylic acid]
Cell proliferating activity on human skin fibroblasts (in words) [1]: strong cell proliferating activity at all concentrations; also recorded: all concentrations of acetylsalicylic acid had a significant effect on cell growth | Mean optical density (OD) at 490 nm, cell proliferation ([1]; 1×10^−4 M): 0.5406 | Median optical density (OD) at 490 nm, cell proliferation ([1]; 1×10^−4 M): 0.5290 | Mean optical density (OD) at 490 nm, cell proliferation ([1]; 1×10^−5 M): 0.6276 | Median optical density (OD) at 490 nm, cell proliferation ([1]; 1×10^−5 M): 0.6270 | Mean optical density (OD) at 490 nm, cell proliferation ([1]; 1×10^−6 M): 0.6590 | Median optical density (OD) at 490 nm, cell proliferation ([1]; 1×10^−6 M): 0.6590

C=C1C[C@]23C[C@@]1(O)CC[C@H]2[C@@]12C=C[C@H](O)[C@@](C)(C(=O)O1)[C@H]2[C@@H]3C(=O)O [gibberellic acid]
Stimulation of fibronectin production (in words) [2]: effective for stimulating fibronectin production in human fibroblasts; also recorded: Both low and high concentrations of gibberellic acid stimulated fibronectin production | Mean optical density (OD) at 450 nm, fibronectin production ([2]; 1×10^−4 M): 0.2150 | Median optical density (OD) at 450 nm, fibronectin production ([2]; 1×10^−4 M): 0.2150 | Mean optical density (OD) at 450 nm, fibronectin production ([2]; 1×10^−5 M): 0.2090 | Median optical density (OD) at 450 nm, fibronectin production ([2]; 1×10^−5 M): 0.2090 | Mean optical density (OD) at 450 nm, fibronectin production ([2]; 1×10^−6 M): 0.2225 | Median optical density (OD) at 450 nm, fibronectin production ([2]; 1×10^−6 M): 0.2225 | Cell proliferating activity on human keratinocytes (in words) [3]: all concentrations of gibberellic acid had a significant effect on cell growth | Cell proliferating activity on human keratinocytes (in words) ([3]; listed as giberrellic acid): strong cell proliferating activity at all concentrations | Mean optical density (OD) at 490 nm, cell proliferation ([3]; 1×10^−4 M): 0.6512 | Median optical density (OD) at 490 nm, cell proliferation ([3]; 1×10^−4 M): 0.6510 | Mean optical density (OD) at 490 nm, cell proliferation ([3]; 1×10^−5 M): 0.8184 | Median optical density (OD) at 490 nm, cell proliferation ([3]; 1×10^−5 M): 0.8210 | Mean optical density (OD) at 490 nm, cell proliferation ([3]; 1×10^−6 M): 0.7854 | Median optical density (OD) at 490 nm, cell proliferation ([3]; 1×10^−6 M): 0.7900 | Effect on wound closure / wound healing (in words) (Swiss Albino mice): accelerated wound healing during the 24 to 48 hrs following treatment | Stimulation of collagen production (in words) [4]: more profound, particularly at lower, rather than higher, concentrations; also recorded: lower concentrations of gibberellic acid had the most profound effect | Mean optical density (OD) at 450 nm, collagen production ([4]; 1×10^−4 M): 0.7780 | Median optical density (OD) at 450 nm, collagen production ([4]; 1×10^−4 M): 0.7780 | Mean optical density (OD) at 450 nm, collagen production ([4]; 1×10^−5 M): 0.8365 | Median optical density (OD) at 450 nm, collagen production ([4]; 1×10^−5 M): 0.8365 | Mean optical density (OD) at 450 nm, collagen production ([4]; 1×10^−6 M): 0.8630 | Median optical density (OD) at 450 nm, collagen production ([4]; 1×10^−6 M): 0.8630 | Skin irritation or redness ([5]; 0.25% composition): no visible sign of any skin irritation or redness | Time for cell renewal, treated skin (RENEWAL) ([5]; 0.25% in hyaluronic acid (0.5% aqueous solution), upper inner arm, individual patients, listed as GA): 21 Days and 14 Days (2×) and 12 Days (2×) and 19 Days and 17 Days

O=C(O)c1ccccc1O [salicylic acid]
Cell proliferating activity on human skin fibroblasts (in words) [1]: strong cell proliferating activity especially at the lower concentrations; also recorded: all concentrations of salicylic acid had a significant effect on cell growth | Mean optical density (OD) at 490 nm, cell proliferation ([1]; 1×10^−4 M): 0.3916 | Mean optical density (OD) at 490 nm, cell proliferation ([1]; 1×10^−5 M): 0.5004 | Median optical density (OD) at 490 nm, cell proliferation ([1]; 1×10^−5 M): 0.5110 | Mean optical density (OD) at 490 nm, cell proliferation ([1]; 1×10^−6 M): 0.4668 | Median optical density (OD) at 490 nm, cell proliferation ([1]; 1×10^−6 M): 0.4690

zeatin
Stimulation of fibronectin production (in words) [2]: effective for stimulating fibronectin production in human fibroblasts; also recorded: all compounds stimulated fibronectin production | Mean optical density (OD) at 450 nm, fibronectin production ([2]; 1×10^−4 M): 0.2075 | Median optical density (OD) at 450 nm, fibronectin production ([2]; 1×10^−4 M): 0.2075 | Mean optical density (OD) at 450 nm, fibronectin production ([2]; 1×10^−5 M): 0.2110 | Median optical density (OD) at 450 nm, fibronectin production ([2]; 1×10^−5 M): 0.2110 | Mean optical density (OD) at 450 nm, fibronectin production ([2]; 1×10^−6 M): 0.1995 | Median optical density (OD) at 450 nm, fibronectin production ([2]; 1×10^−6 M): 0.1995 | Cell proliferating activity on human keratinocytes (in words) ([3]; listed as t-zeatin): strong cell proliferating activity at all concentrations; also recorded: all concentrations of t-zeatin had a significant effect on cell growth | Mean optical density (OD) at 490 nm, cell proliferation ([3]; 1×10^−4 M): 0.7726 | Median optical density (OD) at 490 nm, cell proliferation ([3]; 1×10^−4 M): 0.7880 | Mean optical density (OD) at 490 nm, cell proliferation ([3]; 1×10^−5 M): 0.8716 | Median optical density (OD) at 490 nm, cell proliferation ([3]; 1×10^−5 M): 0.8790 | Mean optical density (OD) at 490 nm, cell proliferation ([3]; 1×10^−6 M): 0.9770 | Median optical density (OD) at 490 nm, cell proliferation ([3]; 1×10^−6 M): 0.9830 | Stimulation of collagen production (in words) [4]: strongly stimulated collagen production at medium concentrations; also recorded: medium concentrations of zeatin also stimulated collagen production | Mean optical density (OD) at 450 nm, collagen production ([4]; 1×10^−4 M): 0.7665 | Median optical density (OD) at 450 nm, collagen production ([4]; 1×10^−4 M): 0.7665 | Mean optical density (OD) at 450 nm, collagen production ([4]; 1×10^−5 M): 0.8115 | Median optical density (OD) at 450 nm, collagen production ([4]; 1×10^−5 M): 0.8115 | Mean optical density (OD) at 450 nm, collagen production ([4]; 1×10^−6 M): 0.7715 | Median optical density (OD) at 450 nm, collagen production ([4]; 1×10^−6 M): 0.7715
